Results as given in patent US8883771B2, “Bivalent inhibitors of IAP proteins and therapeutic methods using the same” (The Regents of the University of Michigan, priority 2012, dated 2014).
Read-outs that look alike come from different tables or passages of the source.

Legend:
[1] = target: XIAP linker-BIR2-BIR3 (residues 120-356) (Homo sapiens (Human), UniProt P98170); test: Fluorescence polarization (FP) based competitive binding assay, XIAP linker-BIR2-BIR3; details: read-out: Binding Affinities IC50 (nM) XIAP Protein
Description: (§1) For cIAP-1 BIR3 and cIAP-2 BIR3 assays, a fluorescently labeled Smac mimetic (Smac-2F) was used as the fluorescent probe. The Kd values of Smac-2F to cIAP-1 BIR3 and cIAP-2 BIR3 were determined by monitoring the total fluorescence polarization of mixtures composed with the fluorescent probe at a fixed concentration and proteins with increasing concentrations up to full saturation. Fluorescence polarization values were measured using the Infinite M-1000 plate reader (Tecan U.S., Research Triangle Park, N.C.) in Microfluor 2 96-well, black, round-bottom plates (Thermo Scientific). To each well, 1 nM of SMAC-2F and increasing concentrations of protein were added to a final volume of 125 μl in the assay buffer (100 mM potassium phosphate, pH 7.5, 100 μg/ml bovine γ-globulin, 0.02% sodium azide, Invitrogen, with 4% DMSO). Plates were incubated at room temperature for 1-2 hours and mixed with gentle shaking to assure equilibrium. […] Equilibrium dissociation constants (Kd) were then calculated by fitting the sigmoidal dose-dependent FP increases as a function of protein concentrations using Graphpad Prism 5.0 software (Graphpad Software, San Diego, Calif.).
(§2) Mixtures of 5 μl of the tested compounds in DMSO and 120 μl of preincubated protein/tracer complex in the assay buffer (100 mM potassium phosphate, pH 7.5, 100 μg/ml bovine γ-globulin, 0.02% sodium azide, Invitrogen) were added into assay plates and incubated at room temperature for 2 hours with gentle shaking. Final concentrations of proteins and probes were 3 nM and 1 nM, 5 nM and 1 nM for assays for cIAP-1 BIR3 and cIAP-2 BIR3, respectively. […] FP values were measured as described above. IC50 values were determined by nonlinear regression fitting of the competition curves. The Ki values of competitive inhibitors were calculated using the derived equation described previously, based upon the measured IC50 values, the Kd values of the probe to different proteins, and the concentrations of the proteins and probes in the competitive assays.
The FP-based assay for XIAP linker-BIR2-BIR3 protein was performed with the same procedures. In this assay, a bivalent fluorescently tagged peptidic Smac mimetic (Smac-1F) was used as the fluorescent probe whose Kd value to XIAP linker-BIR2-BIR3 was determined similarly through the saturation experiments. 0.01% of Triton X-100 was added in the assay buffer to achieve stable fluorescence and polarization value of the dimeric fluorescent probe. Final protein and probe concentrations utilized in the competitive assay were 3 nM and 1 nM, respectively.

[2] = target: cIAP1-BIR3 (residues 253-363) (Homo sapiens (Human), UniProt Q13490); test: Fluorescence polarization (FP) based competitive binding assay, cIAP1-BIR3; details: Smac-2F probe, read-out: Binding Affinities IC50 (nM) cIAP1 Protein
Description: as §1, §2

[3] = target: cIAP-2 BIR3 (residues 238-349) (Homo sapiens (Human), UniProt Q13489); test: Fluorescence polarization (FP) based competitive binding assay, cIAP-2 BIR3; details: FP competitive assay, Smac-2F probe; read-out: Binding Affinities IC50 (nM) cIAP2 Protein
Description: as §1, §2

[4] = tested on: MDA-MB-231 breast cancer cell line; test: Inhibition of cell growth in MDA-MB-231 breast cancer cell line; format: cell-based, human
[5] = tested on: SK-OV-3 ovarian cancer cell line; test: Inhibition of cell growth in SK-OV-3 ovarian cancer cell line; format: cell-based, human
[6] = Homo sapiens, MDA-MB-231, MDA-MB-231 breast cancer cell line
[7] = Homo sapiens, SK-OV-3, SK-OV-3 ovarian cancer cell line
[8] = MDA-MB-231 breast cancer cell line
[9] = SK-OV-3 ovarian cancer cell line

Row | SMILES | IC50 [4, 6] [nM] | IC50 [5, 7] [nM] | other results
1 | CN[C@@H](C)C(=O)N[C@H]1CN(C(=O)NCCCCCCNC(=O)N2CC[C@H]3CC[C@@H](C(=O)N[C@H]4CCC[C@@H]4c4ccccc4)N3C(=O)[C@@H](NC(=O)[C@H](C)NC)C2)CC[C@H]2CCC(C(=O)N[C@H]3CCC[C@@H]3c3ccccc3)N2C1=O (stereo in doubt) [Example 42] | < 1000 | < 1000 | IC50 ([1]; FP competitive assay, Smac-1F probe): < 1000 nM; IC50 [2]: < 1000 nM; IC50 [3]: < 3000 nM
2 | CN[C@@H](C)C(=O)N[C@H]1CN(C(=S)Nc2ccc(NC(=S)N3CC[C@H]4CC[C@@H](C(=O)NC(c5ccccc5)c5ccccc5)N4C(=O)[C@@H](NC(=O)[C@H](C)NC)C3)cc2)CC[C@H]2CCC(C(=O)NC(c3ccccc3)c3ccccc3)N2C1=O (stereo partly shown) [Example 16] | < 100 | – | –
3 | CN[C@@H](C)C(=O)N[C@H]1CN(C(=O)Nc2ccc(NC(=O)N3CC[C@H]4CC[C@@H](C(=O)N[C@@H]5C[C@H]5c5ccccc5)N4C(=O)[C@@H](NC(=O)[C@H](C)NC)C3)cc2)CC[C@H]2CC[C@@H](C(=O)N[C@@H]3C[C@H]3c3ccccc3)N2C1=O [Example 30] | < 10000 | < 10000 | –
4 | CN[C@@H](C)C(=O)N[C@H]1CN(C(=O)NCCCCCCNC(=O)N2CC[C@H]3CC[C@@H](C(=O)N[C@H]4C[C@H](c5ccccc5)C4)N3C(=O)[C@@H](NC(=O)[C@H](C)NC)C2)CC[C@H]2CCC(C(=O)N[C@H]3C[C@H](c4ccccc4)C3)N2C1=O (stereo partly shown) [Example 48] | – | – | IC50 ([4]; Homo sapiens, MDA-MB-231 breast cancer cell line): < 10000 nM; IC50 ([5]; Homo sapiens, SK-OV-3 ovarian cancer cell line): < 10000 nM
5 | CNCC(=O)N[C@H]1CN(C(=O)N2CCN(C(=O)N3CC[C@H]4CC[C@@H](C(=O)NC(c5ccccc5)c5ccccc5)N4C(=O)[C@@H](NC(=O)[C@H](C)NC)C3)CC2)CC[C@H]2CCC(C(=O)NC(c3ccccc3)c3ccccc3)N2C1=O (stereo partly shown) [Example 20] | < 10000 | < 10000 | –
6 | CN[C@@H](C)C(=O)N[C@H]1CN(C(=O)NCCCCCCNC(=O)N2CC[C@H]3CC[C@@H](C(=O)N[C@H]4C[C@H](c5ccccc5)C4)N3C(=O)[C@@H](NC(=O)[C@H](C)NC)C2)CC[C@H]2CCC(C(=O)N[C@H]3C[C@H](c4ccccc4)C3)N2C1=O (stereo partly shown) [Example 49] | – | – | IC50 [1]: < 1000 nM; IC50 [2]: < 1000 nM; IC50 [3]: < 5000 nM
7 | CN[C@@H](C)C(=O)N[C@H]1CN(C(=O)NCCCCCCNC(=O)N2CC[C@H]3CC[C@@H](C(=O)N[C@H]4CCCC[C@@H]4c4ccccc4)N3C(=O)[C@@H](NC(=O)[C@H](C)NC)C2)CC[C@H]2CCC(C(=O)N[C@H]3CCCC[C@@H]3c3ccccc3)N2C1=O (stereo partly shown) [Example 39] | – | – | IC50 [4, 8]: < 1000 nM; IC50 [5, 9]: < 1000 nM
8 | CN[C@@H](C)C(=O)N[C@H]1CN(C(=O)Nc2ccc(NC(=O)N3CC[C@H]4CC[C@@H](C(=O)N[C@@H]5C[C@@H]5c5ccccc5)N4C(=O)[C@@H](NC(=O)[C@H](C)NC)C3)cc2)CC[C@H]2CC[C@@H](C(=O)N[C@@H]3C[C@@H]3c3ccccc3)N2C1=O (stereo in doubt) [Example 26] | – | – | IC50 [4, 8]: < 1000 nM; IC50 [5, 9]: < 1000 nM
9 | CN[C@@H](C)C(=O)N[C@H]1CN(C(=O)Nc2ccc(NC(=O)N3CC[C@H]4CC[C@@H](C(=O)N[C@H]5C[C@@H]5c5ccc(C(F)(F)F)cc5)N4C(=O)[C@@H](NC(=O)[C@H](C)NC)C3)cc2)CC[C@H]2CC[C@@H](C(=O)N[C@H]3C[C@@H]3c3ccc(C(F)(F)F)cc3)N2C1=O [Example 35] | < 10000 | < 10000 | –
10 | CN[C@@H](C)C(=O)N[C@H]1CN(C(=O)NCCCCCCNC(=O)N2CC[C@H]3CC[C@@H](C(=O)NCCc4ccccc4)N3C(=O)[C@@H](NC(=O)[C@H](C)NC)C2)CC[C@H]2CCC(C(=O)NCCc3ccccc3)N2C1=O (stereo partly shown) [Example 46] | < 1000 | < 1000 | –
11 | CN[C@@H](C)C(=O)N[C@H]1CN(C(=O)Nc2ccc(NC(=O)N3CC[C@H]4CC[C@@H](C(=O)N[C@@H]5C[C@@H]5c5ccccc5)N4C(=O)[C@@H](NC(=O)[C@H](C)NC)C3)cc2)CC[C@H]2CC[C@@H](C(=O)N[C@@H]3C[C@@H]3c3ccccc3)N2C1=O [Example 25] | < 1000 | < 1000 | –
